In data set [1] the test system is layer of rat vascular endothelial cells and layer of rat smooth muscle cells on porous membrane. Kind of data set: FITC-Dextran permeability test of cell-layer-affixed blood vessel model after drug exposure. The class given is cell-based. The note with it: drug 500 ng/ml, 0.7 μL/min, one day, upper microchannel, imaged two minutes after running FITC-Dextran. As for the experimental part: The cells employed in example 3 and comparative example 3 were the same as that employed in example 2 and comparative example 2. To form the cell layers, the lower microchannel was initially seeded with 100 μL of a cell suspension of rat smooth muscle cells having a cell concentration of 3×10^6 cells/ml. After a day of cultivation, the upper microchannel was seeded with 100 μL of a cell suspension of rat vascular endothelial cells having a cell concentration of 1×10^6 cells/ml and cultivated for six hours. Then, a respective culture medium (rat EC medium/SMC medium) was run through each channel with a rate of fluid delivery of 0.7 μL/min using a pump. After two days of cultivation, the cell-layer-affixed blood vessel models of example 3 and comparative example 3 were obtained. […]
Two minutes after running the FITC-Dextran through the channels, an inverted microscope (product name Eclipse Ts2, made by Nikon) was used to image fluorescence in the microchannels. […]
After drug exposure, a FITC-Dextran permeability test was performed using the same method as the FITC-Dextran permeability test for the cell-layer-affixed blood vessel models described above. […] In the cell-layer-affixed blood vessel model of comparative example 3, the fluorescence observed in the lower microchannel was minimal. […]

Data set [2] has the same test system. Briefly: fluorescent bead permeability test of cell-layer-affixed blood vessel model after drug exposure. The class given is cell-based. The conditions noted are these: drug 50 μg/ml, 0.7 μL/min, one day, both microchannels, 4 μm beads 1.81×10^6 beads/ml in upper microchannel. As for the experimental part:
In example 2 and comparative example 2, Rat Arterial Endothelial Cells produced by Angio-Proteomie were employed for the rat vascular endothelial cells, and Rat Aortic Smooth Muscle Cells produced by Lonza were employed for the rat smooth muscle cells. The lower microchannel was initially seeded with 100 μL of a cell suspension of rat smooth muscle cells having a cell concentration of 3×10^6 cells/ml. After a day of cultivation, the upper microchannel was seeded with 100 μL of a cell suspension of rat vascular endothelial cells having a cell concentration of 3×10^6 cells/ml. After two days of cultivation, the cell-layer-affixed blood vessel models of example 2 and comparative example 2 were obtained.
A culture medium dilution containing fluorescent beads at a concentration of 1.81×10^6 beads/ml for a tracer was run through the upper microchannel of the cell-layer-affixed blood vessel models produced in example 2 and comparative example 2, and a culture medium not containing fluorescent beads was run through the lower microchannel. […]

In the case of `Oc1ccc(C2CNCCc3c2cc(O)c(O)c3Cl)cc1` (stereo not shown) [fenoldopam], in data set [1] (blood vessel model of comparative example 3 (track-etched porous membrane)), the “FITC-Dextran fluorescence observed in the lower microchannel” value is given as “minimal”. The “FITC-Dextran fluorescence observed in the microchannels” value in data set [1] (blood vessel model of example 3 (honeycomb porous membrane)) is recorded as “fluorescence was observed over a wide area, including in the lower microchannel”.

Regarding cytochalasin, the “number of fluorescent beads inside the lower microchannel” value in data set [2] (blood vessel model of comparative example 2 (track-etched porous membrane)) is listed as 6.7×10^3 beads/ml; in data set [2] (blood vessel model of example 2 (honeycomb porous membrane)), 1.7×10^5 beads/ml.
